# Data as given in patent publication US20260216183A1 (SHENZHEN NEWDEL BIOTECH CO., LTD., priority 2023, published 2026).
# Key:
# [1] = tested on: OXA-induced atopic dermatitis mouse model; experiment: OXA-induced atopic dermatitis mouse model, oral administration; type: in vivo, Balb/c mice; conditions: for Inflammatory cell content in right ear tissue, Significance level: compared to G2 (vehicle); for Clinical scores of dorsal skin, Significance level / Rate of change in the thickness of the pinna of the right ear, Significance level / Thickness of dermis layer of right ear, Significance level / Thickness of epidermal layer of right ear, Significance level / Pinna thickness change rate at time point, Significance level: vs group 2 (vehicle); for Number of inflammatory cells per mm: right ear tissue, Mean ± SEM
# Procedure: (§1) (1) Screening and grouping: 60 female 6- to 8-week-old Balb/c mice in total were used as experimental animals in this project, which were obtained from Shanghai Model Organisms Center, Inc. The first grouping was done before the start of the experiment. […] (2) Animal modeling: The day when the first grouping was done was designated as day (−7). The backs of the mice were depilated with depilatory cream (area of about 2 cm×3 cm). […] The 1% OXA solution was prepared by weighing 0.1 g of OXA powder, adding 10 mL of an acetone solution, mixing well, and dissolving. […] (3) The administration mode of the test substance: […] The mice were sacrificed on day 21. The skin of the right ear of the mice was left for pathological examination. The thickness of the epidermal layer and inflammatory cell infiltration were measured by H&E staining, and the thickness of the dermis layer was measured by Masson staining.
# [2] = Mouse body weight change in the oral administration experiment; type: in vivo, Balb/c mice; conditions: vs group 2 (vehicle)
# Procedure: as §1
# [3] = target: T1, TRKA (Homo sapiens, UniProt P04629); experiment: TRKA enzyme activity assay (HTRF); type: biochemical; conditions: ATP 25 μM
# T1 construct: purchased Carna 08-186
# Text: (§2) A kinase phosphorylates a substrate, and an antibody labeled with Eu-CryPtate binds to a phosphorylation site in the substrate; streptavidin-XL665 binds to the substrate biotin; when Eu and XL665 are close, Eu as a donor emits emission light (620 nm) after being excited by a light source (320 nm) and transfers energy resonance to a close XL665 receptor, and the receptor emits emission light (665 nm) after being excited; the specific signal is proportional to the phosphorylated substrate; when an inhibitor is added, the phosphorylation level is inhibited, the emission light at 665 nm is undetectable, and only the emission light at 620 nm is detected, so as to evaluate the level of inhibition of kinase activity by the compound.
# Replicate wells were set for the assay. 25 nL of the compound was transferred to a 384 reaction plate (Catalog No. 784075, Greiner) using Echo 665. […] 2.5 μL of TRKA (1.5 nM, 08-186, Carna) solution was transferred to a 384 reaction plate. The plate was centrifuged at 1000 rpm for 60 s using a centrifuge and incubated at 25° C. for 10 min. […] The fluorescence signals at 620 nm (Cryptate) and 665 nm (XL665) were read using a BMG microplate reader. The ratio of the fluorescence signals, i.e., (665 nm/620 nm)×10000, in each well was calculated, and the ratio represented the degree of the kinase activity.
# [4] = target: T2, TRKC (Homo sapiens, UniProt Q16288); experiment: TRKC enzyme activity assay (HTRF); type: biochemical; conditions: ATP 25 μM
# T2 construct: purchased Carna 08-197
# Text: as §2
# Replicate wells were set for the assay. […] 2.5 μL of TRKC (1.5 nM, 08-197, Carna) solution was transferred to a 384 reaction plate. The plate was centrifuged at 1000 rpm for 60 s using a centrifuge and incubated at 25° C. for 10 min. A mixed solution of 2× biotin-labeled tyrosine kinase substrate (1 μM) and ATP (25 μM) was prepared using the kinase reaction buffer. […] The fluorescence signals at 620 nm (Cryptate) and 665 nm (XL665) were read using a BMG microplate reader. The ratio of the fluorescence signals, i.e., (665 nm/620 nm)×10000, in each well was calculated, and the ratio represented the degree of the kinase activity.
# [5] = target: T3, DDR1 (Homo sapiens, UniProt Q08345); experiment: DDR1 enzyme activity assay (HTRF); type: biochemical; conditions: ATP 25 μM
# T3 construct: purchased Carna 08-113
# Text: as §2
# Replicate wells were set for the assay. […] 2.5 μL of DDR1 (2.7 nM, 08-113, Carna) solution was transferred to a 384 reaction plate. The plate was centrifuged at 1000 rpm for 60 s using a centrifuge and incubated at 25° C. for 10 min. A mixed solution of 2× biotin-labeled tyrosine kinase substrate (1 μM) and ATP (25 μM) was prepared using the kinase reaction buffer. […] The fluorescence signals at 620 nm (Cryptate) and 665 nm (XL665) were read using a BMG microplate reader. The ratio of the fluorescence signals, i.e., (665 nm/620 nm)×10000, in each well was calculated, and the ratio represented the degree of the kinase activity.
# [6] = target: T4, DDR2 (Homo sapiens, UniProt Q16832); experiment: DDR2 enzyme activity assay (HTRF); type: biochemical; conditions: ATP 25 μM
# T4 sequence (Q16832 22-855): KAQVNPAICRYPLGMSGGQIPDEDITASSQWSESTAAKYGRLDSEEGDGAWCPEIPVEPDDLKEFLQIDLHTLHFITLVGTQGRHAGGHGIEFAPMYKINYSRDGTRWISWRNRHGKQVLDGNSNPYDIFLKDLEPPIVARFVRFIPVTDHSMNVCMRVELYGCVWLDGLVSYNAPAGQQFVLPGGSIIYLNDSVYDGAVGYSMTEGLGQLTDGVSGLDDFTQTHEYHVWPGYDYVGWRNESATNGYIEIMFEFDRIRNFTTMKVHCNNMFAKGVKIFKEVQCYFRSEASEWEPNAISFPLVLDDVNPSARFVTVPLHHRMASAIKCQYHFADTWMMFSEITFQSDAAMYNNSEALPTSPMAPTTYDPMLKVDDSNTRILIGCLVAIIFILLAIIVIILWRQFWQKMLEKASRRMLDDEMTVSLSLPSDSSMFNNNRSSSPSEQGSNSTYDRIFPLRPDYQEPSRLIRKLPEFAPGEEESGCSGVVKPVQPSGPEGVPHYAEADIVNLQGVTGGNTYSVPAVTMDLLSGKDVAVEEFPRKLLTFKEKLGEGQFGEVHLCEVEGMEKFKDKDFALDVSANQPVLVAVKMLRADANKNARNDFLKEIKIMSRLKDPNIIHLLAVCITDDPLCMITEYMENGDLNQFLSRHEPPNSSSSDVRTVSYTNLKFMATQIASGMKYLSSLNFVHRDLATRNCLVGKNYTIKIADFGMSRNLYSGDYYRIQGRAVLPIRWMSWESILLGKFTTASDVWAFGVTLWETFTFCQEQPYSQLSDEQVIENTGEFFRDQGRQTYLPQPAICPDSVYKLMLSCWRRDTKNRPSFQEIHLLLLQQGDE
# Procedure: Replicate wells were set for the assay. […] 2.5 μL of DDR2 (1.3 nM, 08-114, Carna) solution was transferred to a 384 reaction plate. The plate was centrifuged at 1000 rpm for 60 s using a centrifuge and incubated at 25° C. for 10 min. A mixed solution of 2× biotin-labeled tyrosine kinase substrate (1 μM) and ATP (25 μM) was prepared using the kinase reaction buffer. 2.5 μL of the mixed solution of the substrate and ATP was added to the reaction plate to start the reaction, and the plate was centrifuged at 1000 rpm for 60 s using the centrifuge. The plate was sealed with a plate-sealing film and incubated at 25° C. for 40 min. 5 μL of a mixed solution of Eu-CryPtate-labeled anti-tyrosine kinase antibody and streptavidin-XL665 was added to each well of the reaction plate. The plate was centrifuged at 1000 rpm for 1 min and incubated at 25° C. for 60 min. The fluorescence signals at 620 nm (Cryptate) and 665 nm (XL665) were read using a BMG microplate reader. The ratio of the fluorescence signals, i.e., (665 nm/620 nm)×10000, in each well was calculated, and the ratio represented the degree of the kinase activity.
# [7] = target: T5, CSF1R (Homo sapiens, UniProt P07333); experiment: CSF1R enzyme activity assay (HTRF); type: biochemical; conditions: ATP 25 μM
# T5 construct: purchased Carna 08-114
# T5 sequence (P07333 538-972 limits assumed): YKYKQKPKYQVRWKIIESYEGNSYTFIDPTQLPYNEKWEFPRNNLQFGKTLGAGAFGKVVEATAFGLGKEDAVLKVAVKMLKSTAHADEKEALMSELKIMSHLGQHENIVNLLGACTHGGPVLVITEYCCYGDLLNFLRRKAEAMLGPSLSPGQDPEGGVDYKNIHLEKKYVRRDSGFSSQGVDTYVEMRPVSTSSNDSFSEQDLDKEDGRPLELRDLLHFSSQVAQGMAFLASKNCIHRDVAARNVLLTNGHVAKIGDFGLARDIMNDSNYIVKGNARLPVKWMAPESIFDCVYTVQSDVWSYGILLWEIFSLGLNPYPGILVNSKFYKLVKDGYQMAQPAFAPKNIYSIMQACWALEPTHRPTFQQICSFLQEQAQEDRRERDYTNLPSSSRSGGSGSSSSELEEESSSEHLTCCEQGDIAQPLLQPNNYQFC
# Text: as §2
# Replicate wells were set for the assay. […] 2.5 μL of CSF1R (1.3 nM, 08-114, Carna) solution was transferred to a 384 reaction plate. The plate was centrifuged at 1000 rpm for 60 s using a centrifuge and incubated at 25° C. for 10 min. A mixed solution of 2× biotin-labeled tyrosine kinase substrate (1 μM) and ATP (25 μM) was prepared using the kinase reaction buffer. […] The fluorescence signals at 620 nm (Cryptate) and 665 nm (XL665) were read using a BMG microplate reader. The ratio of the fluorescence signals, i.e., (665 nm/620 nm)×10000, in each well was calculated, and the ratio represented the degree of the kinase activity.
# T1 sequence (P04629 33-796): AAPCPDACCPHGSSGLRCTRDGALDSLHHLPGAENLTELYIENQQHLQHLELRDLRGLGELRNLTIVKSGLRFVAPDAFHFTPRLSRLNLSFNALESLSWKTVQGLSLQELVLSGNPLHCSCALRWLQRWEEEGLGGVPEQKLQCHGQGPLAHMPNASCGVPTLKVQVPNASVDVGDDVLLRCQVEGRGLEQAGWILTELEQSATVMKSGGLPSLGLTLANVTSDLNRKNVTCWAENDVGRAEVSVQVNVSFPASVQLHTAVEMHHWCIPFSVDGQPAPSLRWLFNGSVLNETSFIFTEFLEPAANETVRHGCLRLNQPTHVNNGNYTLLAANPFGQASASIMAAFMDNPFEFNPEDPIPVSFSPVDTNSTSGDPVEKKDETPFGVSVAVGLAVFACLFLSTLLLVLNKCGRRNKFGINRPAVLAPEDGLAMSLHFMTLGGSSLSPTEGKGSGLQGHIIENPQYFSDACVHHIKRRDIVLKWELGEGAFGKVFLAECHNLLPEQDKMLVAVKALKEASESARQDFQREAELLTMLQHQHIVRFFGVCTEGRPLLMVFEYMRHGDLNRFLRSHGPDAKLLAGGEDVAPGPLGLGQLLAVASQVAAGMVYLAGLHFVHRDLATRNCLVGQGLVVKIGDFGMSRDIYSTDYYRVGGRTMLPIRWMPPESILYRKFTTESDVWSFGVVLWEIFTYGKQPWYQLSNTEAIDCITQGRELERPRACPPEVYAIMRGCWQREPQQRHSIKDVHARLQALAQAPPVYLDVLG
# T2 sequence (Q16288 32-839): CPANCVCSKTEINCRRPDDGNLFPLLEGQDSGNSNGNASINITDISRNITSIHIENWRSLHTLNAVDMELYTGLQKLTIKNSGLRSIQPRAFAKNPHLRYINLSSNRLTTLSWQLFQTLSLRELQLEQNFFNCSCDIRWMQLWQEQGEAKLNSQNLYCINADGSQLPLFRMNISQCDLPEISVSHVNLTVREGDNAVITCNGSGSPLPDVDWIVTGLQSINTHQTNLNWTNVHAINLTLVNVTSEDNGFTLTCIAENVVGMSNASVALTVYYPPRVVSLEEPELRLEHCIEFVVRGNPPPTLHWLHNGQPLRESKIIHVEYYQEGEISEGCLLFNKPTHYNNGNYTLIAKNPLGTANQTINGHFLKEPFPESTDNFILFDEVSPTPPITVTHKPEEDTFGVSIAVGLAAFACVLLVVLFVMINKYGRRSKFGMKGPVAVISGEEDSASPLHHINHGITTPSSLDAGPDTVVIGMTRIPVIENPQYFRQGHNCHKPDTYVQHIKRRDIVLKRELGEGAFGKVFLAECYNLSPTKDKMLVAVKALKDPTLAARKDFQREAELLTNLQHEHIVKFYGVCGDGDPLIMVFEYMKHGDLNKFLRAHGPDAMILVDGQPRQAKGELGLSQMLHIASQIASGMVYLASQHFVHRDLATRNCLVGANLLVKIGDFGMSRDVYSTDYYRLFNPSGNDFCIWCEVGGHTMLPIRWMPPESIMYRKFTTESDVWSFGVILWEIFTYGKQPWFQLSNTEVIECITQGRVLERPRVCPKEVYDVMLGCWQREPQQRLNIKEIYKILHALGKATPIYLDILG
# T3 sequence (Q08345 19-913): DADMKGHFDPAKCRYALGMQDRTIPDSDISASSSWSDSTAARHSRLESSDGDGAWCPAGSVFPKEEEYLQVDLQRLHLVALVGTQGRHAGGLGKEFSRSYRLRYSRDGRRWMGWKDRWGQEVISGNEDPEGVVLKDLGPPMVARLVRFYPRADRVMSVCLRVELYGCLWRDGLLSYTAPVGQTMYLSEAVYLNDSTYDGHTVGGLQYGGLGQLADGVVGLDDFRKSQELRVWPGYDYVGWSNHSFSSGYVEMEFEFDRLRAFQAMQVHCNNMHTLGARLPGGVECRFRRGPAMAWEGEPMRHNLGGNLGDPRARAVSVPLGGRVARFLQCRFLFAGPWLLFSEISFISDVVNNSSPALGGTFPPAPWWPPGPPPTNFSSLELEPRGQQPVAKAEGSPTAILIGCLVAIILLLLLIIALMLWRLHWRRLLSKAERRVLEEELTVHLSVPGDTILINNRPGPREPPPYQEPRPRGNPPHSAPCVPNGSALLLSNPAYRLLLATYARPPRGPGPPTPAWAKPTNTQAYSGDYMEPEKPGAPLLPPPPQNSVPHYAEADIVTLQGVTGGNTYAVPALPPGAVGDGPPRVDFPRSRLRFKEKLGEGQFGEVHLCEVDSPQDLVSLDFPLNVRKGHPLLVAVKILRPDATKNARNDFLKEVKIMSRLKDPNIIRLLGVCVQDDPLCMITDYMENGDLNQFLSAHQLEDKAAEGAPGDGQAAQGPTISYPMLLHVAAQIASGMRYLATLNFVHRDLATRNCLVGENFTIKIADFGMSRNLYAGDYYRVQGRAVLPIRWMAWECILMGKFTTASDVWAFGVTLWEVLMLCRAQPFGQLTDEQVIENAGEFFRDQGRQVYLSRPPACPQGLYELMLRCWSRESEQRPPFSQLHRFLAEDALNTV
compound,measurement,setting,value
"CCCS(=O)(=O)N[C@H]1C[C@@H](N(C)c2ncnc3[nH]ccc23)C1 [Abrocitinib, reference compound]","Inflammatory cell content in right ear tissue, Significance level",[1]; 17 mpk p.o. once daily 22 days,* (*p<0.05)
same,"Clinical scores of dorsal skin, Significance level",[1]; 17 mpk p.o. once daily 22 days,* (*p<0.05)
same,"Rate of change in the thickness of the pinna of the right ear, Significance level",[1]; 17 mpk p.o. once daily 22 days,**** (****p<0.0001)
same,"Thickness of dermis layer of right ear, Significance level",[1]; 17 mpk p.o. once daily 22 days,*** (***p<0.001)
same,"Thickness of epidermal layer of right ear, Significance level",[1]; 17 mpk p.o. once daily 22 days,ns (p>0.05)
same,"Pinna thickness change rate at time point, Significance level","[1]; day 3, 17 mpk p.o. once daily",ns (p>0.05)
same,"Pinna thickness change rate at time point, Significance level","[1]; day 5, 17 mpk p.o. once daily",ns (p>0.05)
same,"Pinna thickness change rate at time point, Significance level","[1]; day 7, 17 mpk p.o. once daily",ns (p>0.05)
same,"Pinna thickness change rate at time point, Significance level","[1]; day 10, 17 mpk p.o. once daily",** (**p<0.01)
same,"Pinna thickness change rate at time point, Significance level","[1]; day 12, 17 mpk p.o. once daily",* (*p<0.05)
same,"Pinna thickness change rate at time point, Significance level","[1]; day 14, 17 mpk p.o. once daily",** (**p<0.01)
same,"Pinna thickness change rate at time point, Significance level","[1]; day 17, 17 mpk p.o. once daily",ns (p>0.05)
same,"Pinna thickness change rate at time point, Significance level","[1]; day 19, 17 mpk p.o. once daily",** (**p<0.01)
same,"Pinna thickness change rate at time point, Significance level","[1]; day 21, 17 mpk p.o. once daily",* (*p<0.05)
same,Number of inflammatory cells per mm,[1]; 17 mpk p.o. once daily 22 days,236 ± 26.59 cells per mm
same,"Rate of change in body weight, Significance level",[2]; 17 mpk p.o. once daily 22 days,ns (p>0.05)
"Cc1c(C#Cc2cnc3ccc(N4CCC(O)CC4)nn23)cccc1C(=O)Nc1cc(Cl)cc(C(F)(F)F)c1 [compound 1, N-(3-chloro-5-(trifluoromethyl)phenyl)-3-((6-(4-hydroxypiperidin-1-yl)imidazo[1,2-b]pyridazin-3-yl)ethynyl)-2-methylbenzamide]",IC50,[3],4.4 nM
same,IC50,[4],0.35 nM
same,IC50,[5],0.762 nM
same,IC50,[6],37.9 nM
same,IC50,[7],14.7 nM
same,"Inflammatory cell content in right ear tissue, Significance level",[1]; 3 mpk p.o. once daily 22 days,*** (***p<0.001)
same,"Clinical scores of dorsal skin, Significance level",[1]; 3 mpk p.o. once daily 22 days,ns (p>0.05)
same,"Rate of change in the thickness of the pinna of the right ear, Significance level",[1]; 3 mpk p.o. once daily 22 days,* (*p<0.05)
same,"Thickness of dermis layer of right ear, Significance level",[1]; 3 mpk p.o. once daily 22 days,**** (****p<0.0001)
same,"Thickness of epidermal layer of right ear, Significance level",[1]; 3 mpk p.o. once daily 22 days,* (*p<0.05)
same,"Inflammatory cell content in right ear tissue, Significance level",[1]; 10 mpk p.o. once daily 22 days,*** (***p<0.001)
same,"Clinical scores of dorsal skin, Significance level",[1]; 10 mpk p.o. once daily 22 days,* (*p<0.05)
same,"Rate of change in the thickness of the pinna of the right ear, Significance level",[1]; 10 mpk p.o. once daily 22 days,**** (****p<0.0001)
same,"Thickness of dermis layer of right ear, Significance level",[1]; 10 mpk p.o. once daily 22 days,**** (****p<0.0001)
same,"Thickness of epidermal layer of right ear, Significance level",[1]; 10 mpk p.o. once daily 22 days,* (*p<0.05)
same,"Inflammatory cell content in right ear tissue, Significance level",[1]; 30 mpk p.o. once daily 22 days,*** (***p<0.001)
same,"Clinical scores of dorsal skin, Significance level",[1]; 30 mpk p.o. once daily 22 days,*** (***p<0.001)
same,"Rate of change in the thickness of the pinna of the right ear, Significance level",[1]; 30 mpk p.o. once daily 22 days,**** (****p<0.0001)
same,"Thickness of dermis layer of right ear, Significance level",[1]; 30 mpk p.o. once daily 22 days,**** (****p<0.0001)
same,"Thickness of epidermal layer of right ear, Significance level",[1]; 30 mpk p.o. once daily 22 days,* (*p<0.05)
same,"Pinna thickness change rate at time point, Significance level","[1]; day 3, 3 mpk p.o. once daily",ns (p>0.05)
same,"Pinna thickness change rate at time point, Significance level","[1]; day 3, 10 mpk p.o. once daily",ns (p>0.05)
same,"Pinna thickness change rate at time point, Significance level","[1]; day 3, 30 mpk p.o. once daily",** (**p<0.01)
same,"Pinna thickness change rate at time point, Significance level","[1]; day 5, 3 mpk p.o. once daily",ns (p>0.05)
same,"Pinna thickness change rate at time point, Significance level","[1]; day 5, 10 mpk p.o. once daily",ns (p>0.05)
same,"Pinna thickness change rate at time point, Significance level","[1]; day 5, 30 mpk p.o. once daily",** (**p<0.01)
same,"Pinna thickness change rate at time point, Significance level","[1]; day 7, 3 mpk p.o. once daily",ns (p>0.05)
same,"Pinna thickness change rate at time point, Significance level","[1]; day 7, 10 mpk p.o. once daily",ns (p>0.05)
same,"Pinna thickness change rate at time point, Significance level","[1]; day 7, 30 mpk p.o. once daily",** (**p<0.01)
same,"Pinna thickness change rate at time point, Significance level","[1]; day 10, 3 mpk p.o. once daily",* (*p<0.05)
same,"Pinna thickness change rate at time point, Significance level","[1]; day 10, 10 mpk p.o. once daily",** (**p<0.01)
same,"Pinna thickness change rate at time point, Significance level","[1]; day 10, 30 mpk p.o. once daily",** (**p<0.01)
same,"Pinna thickness change rate at time point, Significance level","[1]; day 12, 3 mpk p.o. once daily",ns (p>0.05)
same,"Pinna thickness change rate at time point, Significance level","[1]; day 12, 10 mpk p.o. once daily",ns (p>0.05)
same,"Pinna thickness change rate at time point, Significance level","[1]; day 12, 30 mpk p.o. once daily",** (**p<0.01)
same,"Pinna thickness change rate at time point, Significance level","[1]; day 14, 3 mpk p.o. once daily",ns (p>0.05)
same,"Pinna thickness change rate at time point, Significance level","[1]; day 14, 10 mpk p.o. once daily",** (**p<0.01)
same,"Pinna thickness change rate at time point, Significance level","[1]; day 14, 30 mpk p.o. once daily",** (**p<0.01)
same,"Pinna thickness change rate at time point, Significance level","[1]; day 17, 3 mpk p.o. once daily",ns (p>0.05)
same,"Pinna thickness change rate at time point, Significance level","[1]; day 17, 10 mpk p.o. once daily",ns (p>0.05)
same,"Pinna thickness change rate at time point, Significance level","[1]; day 17, 30 mpk p.o. once daily",* (*p<0.05)
same,"Pinna thickness change rate at time point, Significance level","[1]; day 19, 3 mpk p.o. once daily",ns (p>0.05)
same,"Pinna thickness change rate at time point, Significance level","[1]; day 19, 10 mpk p.o. once daily",** (**p<0.01)
same,"Pinna thickness change rate at time point, Significance level","[1]; day 19, 30 mpk p.o. once daily",*** (***p<0.001)
same,"Pinna thickness change rate at time point, Significance level","[1]; day 21, 3 mpk p.o. once daily",ns (p>0.05)
same,"Pinna thickness change rate at time point, Significance level","[1]; day 21, 10 mpk p.o. once daily",** (**p<0.01)
same,"Pinna thickness change rate at time point, Significance level","[1]; day 21, 30 mpk p.o. once daily",*** (***p<0.001)
same,Number of inflammatory cells per mm,[1]; 3 mpk p.o. once daily 22 days,189 ± 27.25 cells per mm
same,Number of inflammatory cells per mm,[1]; 10 mpk p.o. once daily 22 days,162 ± 18.31 cells per mm
same,Number of inflammatory cells per mm,[1]; 30 mpk p.o. once daily 22 days,160 ± 34.18 cells per mm
same,"Rate of change in body weight, Significance level",[2]; 3 mpk p.o. once daily 22 days,** (**p<0.01)
same,"Rate of change in body weight, Significance level",[2]; 10 mpk p.o. once daily 22 days,ns (p>0.05)
same,"Rate of change in body weight, Significance level",[2]; 30 mpk p.o. once daily 22 days,ns (p>0.05)
